{
  "source": "paper PMC6906261",
  "about": "(The journal of pain : official journal of the American Pain …, 2019)",
  "key": {"CD-1 mice [1]": {"tested_on": "CD-1 mice", "settings": "general literature value; cited from earlier work"}, "CD-1 mice [2]": {"tested_on": "CD-1 mice", "settings": "mouse, in vivo"}, "TNFα mRNA": {"tested_on": "TNFα mRNA", "settings": "mouse, in vivo"}, "CD-1 mice [3]": {"tested_on": "CD-1 mice", "settings": "mouse, in vivo", "remark": "listed apart in the source"}, "CD-1 mice [4]": {"tested_on": "CD-1 mice", "settings": "mouse, in vivo", "remark": "listed apart in the source"}, "CD-1 mice [5]": {"tested_on": "CD-1 mice", "settings": "mouse, in vivo", "remark": "listed apart in the source"}, "CD-1 mice [6]": {"tested_on": "CD-1 mice", "settings": "mouse, in vivo", "remark": "listed apart in the source"}},
  "note": "Structures can show the parent of a compound that is named as a salt.",
  "data": [
    {"smiles": "CN1CC[C@]23c4c5ccc(O)c4O[C@H]2[C@@H](O)C=C[C@H]3[C@H]1C5", "note": "[Morphine, Morphine sulfate pentahydrate]", "values": [
      {"measurement": "Tail flick A50 from the literature", "setting": "CD-1 mice [1]", "result": "around 3.2 mg/kg"},
      {"measurement": "Rotarod motor impairment (latency to fall)", "setting": "CD-1 mice [2]", "result": "no impairment"},
      {"measurement": "TNFα mRNA level in spinal cord in CIPN", "setting": "TNFα mRNA", "result": "did not alter"},
      {"measurement": "Anti-nociceptive efficacy on day 3, HIV Neuropathy", "setting": "CD-1 mice [3]", "result": "zero efficacy"},
      {"measurement": "Tolerance – Days to Zero Efficacy, HIV Neuropathy, 10 mg/kg", "setting": "CD-1 mice [3]", "result": "3.0 (2.7-3.6) days"},
      {"measurement": "Tolerance – Days to Zero Efficacy, CIPN, 10 mg/kg", "setting": "CD-1 mice [4]", "result": "2.2 (1.9-3.3) days"},
      {"measurement": "Withdrawal GI output, CIPN mice", "setting": "CD-1 mice [5]", "result": "robust jumping and GI output response"},
      {"measurement": "Withdrawal GI output, pain-naïve mice", "setting": "CD-1 mice [5]", "result": "robust jumping and GI output behavior"},
      {"measurement": "Withdrawal jumping behavior, CIPN mice", "setting": "CD-1 mice [5]", "result": "robust jumping and GI output response"},
      {"measurement": "Withdrawal jumping behavior, pain-naïve mice", "setting": "CD-1 mice [5]", "result": "robust jumping and GI output behavior"}
    ]},
    {"smiles": "C=CCN1CC[C@]23c4c5ccc(O)c4O[C@H]2C(=O)CC[C@@]3(O)[C@H]1C5", "note": "[Naloxone]", "values": [
      {"measurement": "Decrease of tail flick AUC vs vehicle group, naloxone it", "setting": "CD-1 mice [6]", "result": 4.6, "unit": "%"},
      {"measurement": "Effect of antagonist on SRI-22141 tail flick anti-nociception, naloxone icv", "setting": "CD-1 mice [6]", "result": "strongly reduced"},
      {"measurement": "Effect of antagonist on SRI-22141 tail flick anti-nociception, naloxone ip", "setting": "CD-1 mice [6]", "result": "completely prevented"}
    ]},
    {"smiles": "Oc1ccc2c3c1O[C@H]1c4[nH]c5ccccc5c4C[C@@]4(O)[C@@H](C2)N(CC2CC2)CC[C@]314", "note": "[Naltrindole]", "values": [
      {"measurement": "Effect of antagonist on TNFα mRNA decrease caused by SRI-22141", "setting": "TNFα mRNA", "result": "reversed the decrease in TNFα caused by SRI-22141 back to baseline"},
      {"measurement": "Effect of antagonist on SRI-22141 tail flick anti-nociception, naltrindole ip", "setting": "CD-1 mice [6]", "result": "no impact"},
      {"measurement": "Effect of antagonist on SRI-22141 anti-nociception in CIPN", "setting": "CD-1 mice [4]", "result": "strongly reduced"}
    ]}
  ]
}
